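Test compounds were applied to cells in 96-well plates for 48 hours at 5 doses. GI50 marks 50% less growth.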 Active and inactive are the calls of the source. Rule as the data show it: active = GI50 up to about 1.1 µM and inactive = higher.
Key:
Assay in all cases: NCI-60 cell line screen, 48 h
[1] = test system: 786-0
[2] = test system: A498
[3] = test system: A549
[4] = test system: ACHN
[5] = test system: CAKI-1
[6] = test system: CCRF-CEM
[7] = test system: COLO 205
[8] = test system: DLD-1
[9] = test system: DMS-114
[10] = test system: DMS-273
[11] = test system: EKVX
[12] = test system: HCT-116
[13] = test system: HCT-15
[14] = test system: HL-60
[15] = test system: HOP-18
[16] = test system: HOP-62
[17] = test system: HOP-92
[18] = test system: HT-29
[19] = test system: IGROV-1
[20] = test system: K562
[21] = test system: KM12
[22] = test system: LOX IMVI
[23] = test system: LXFL 529
[24] = test system: M14
[25] = test system: M19-MEL
[26] = test system: MOLT-4
[27] = test system: Malme-3M
[28] = test system: NCI-H23
[29] = test system: NCI-H460
[30] = test system: NCI-H522
[31] = test system: OVCAR-3
[32] = test system: OVCAR-4
[33] = test system: OVCAR-5
[34] = test system: OVCAR-8
[35] = test system: RPMI-8226
[36] = test system: RXF 393
[37] = test system: SF-268
[38] = test system: SF-295
[39] = test system: SF-539
[40] = test system: SK-MEL-28
[41] = test system: SK-MEL-2
[42] = test system: SK-MEL-5
[43] = test system: SK-OV-3
[44] = test system: SN12C
[45] = test system: SNB-19
[46] = test system: SNB-75
[47] = test system: SNB-78
[48] = test system: SR
[49] = test system: SW-620
[50] = test system: TK-10
[51] = test system: U-251
[52] = test system: UACC-257
[53] = test system: UACC-62
[54] = test system: UO-31
[55] = test system: XF498
[56] = test system: HCC 2998
[57] = test system: KM-20L2
[58] = test system: NCI-H226

## Cc1cc(Br)ccc1/N=N/c1c(C)nn(-c2ccccc2)c1-c1ccccc1
[1]
  GI50: 58.3 µM (inactive)
[2]
  GI50: > 100 µM (inactive)
[3]
  GI50: 81.8 µM (inactive)
[4]
  GI50: 54.7 µM (inactive)
[5]
  GI50: 71.3 µM (inactive)
[6]
  GI50: 21.2 µM (inactive)
[7]
  GI50: > 100 µM (inactive)
[8]
  GI50: 30.9 µM (inactive)
[9]
  GI50: 89.5 µM (inactive)
[10]
  GI50: 34.3 µM (inactive)
[11]
  GI50: > 100 µM (inactive)
[12]
  GI50: 9.08 µM (inactive)
[13]
  GI50: 9.82 µM
[14]
  GI50: 5.05 µM (inactive)
[15]
  GI50: > 100 µM (inactive)
[16]
  GI50: > 100 µM (inactive)
[17]
  GI50: 98.6 µM (inactive)
[18]
  GI50: 44.5 µM (inactive)
[19]
  GI50: 93.5 µM (inactive)
[20]
  GI50: 17 µM (inactive)
[21]
  GI50: 57 µM (inactive)
[22]
  GI50: 16.6 µM (inactive)
[23]
  GI50: 45.8 µM (inactive)
[24]
  GI50: > 100 µM (inactive)
[25]
  GI50: > 100 µM (inactive)
[26]
  GI50: > 100 µM (inactive)
[27]
  GI50: > 100 µM (inactive)
[28]
  GI50: > 100 µM (inactive)
[29]
  GI50: 45.8 µM (inactive)
[30]
  GI50: 51.6 µM (inactive)
[31]
  GI50: 99.5 µM (inactive)
[32]
  GI50: > 100 µM (inactive)
[33]
  GI50: 53.7 µM (inactive)
[34]
  GI50: > 100 µM (inactive)
[35]
  GI50: > 100 µM (inactive)
[36]
  GI50: 33.3 µM (inactive)
[37]
  GI50: > 100 µM (inactive)
[38]
  GI50: 75.2 µM (inactive)
[39]
  GI50: 92.3 µM (inactive)
[40]
  GI50: > 100 µM (inactive)
[41]
  GI50: > 100 µM (inactive)
[42]
  GI50: 29 µM (inactive)
[43]
  GI50: > 100 µM (inactive)
[44]
  GI50: 97.5 µM (inactive)
[45]
  GI50: > 100 µM (inactive)
[46]
  GI50: > 100 µM (inactive)
[47]
  GI50: > 100 µM (inactive)
[48]
  GI50: > 100 µM (inactive)
[49]
  GI50: 81.5 µM (inactive)
[50]
  GI50: > 100 µM (inactive)
[51]
  GI50: 27 µM (inactive)
[52]
  GI50: 49.3 µM (inactive)
[53]
  GI50: 27 µM (inactive)
[54]
  GI50: > 100 µM (inactive)
[55]
  GI50: > 100 µM (inactive)

## CC(=O)Nc1ccc(C2=N/C(=C\c3ccc(Cl)cc3)C(=O)O2)cc1
[1]
  GI50: 20.8 µM (inactive)
[2]
  GI50: > 100 µM (inactive)
[3]
  GI50: > 100 µM (inactive)
[4]
  GI50: 27.4 µM (inactive)
[5]
  GI50: > 100 µM (inactive)
[6]
  GI50: 26.7 µM (inactive)
[7]
  GI50: 39.2 µM (inactive)
[8]
  GI50: 31.9 µM (inactive)
[10]
  GI50: 66.5 µM (inactive)
[11]
  GI50: > 100 µM (inactive)
[56]
  GI50: 20 µM (inactive)
[12]
  GI50: 36 µM (inactive)
[13]
  GI50: 19.9 µM
[14]
  GI50: 30.3 µM (inactive)
[15]
  GI50: > 100 µM (inactive)
[16]
  GI50: > 100 µM (inactive)
[17]
  GI50: 33.7 µM (inactive)
[18]
  GI50: 60.7 µM (inactive)
[19]
  GI50: > 100 µM (inactive)
[20]
  GI50: 19.5 µM (inactive)
[57]
  GI50: 84.7 µM (inactive)
[21]
  GI50: 33.1 µM (inactive)
[22]
  GI50: 18.4 µM (inactive)
[23]
  GI50: 24.4 µM (inactive)
[24]
  GI50: 25.5 µM (inactive)
[25]
  GI50: 25.5 µM (inactive)
[26]
  GI50: 20.7 µM (inactive)
[27]
  GI50: 87.7 µM (inactive)
[58]
  GI50: > 100 µM (inactive)
[28]
  GI50: 36.4 µM (inactive)
[29]
  GI50: 69.5 µM (inactive)
[30]
  GI50: 25.4 µM (inactive)
[31]
  GI50: 27.8 µM (inactive)
[32]
  GI50: 65 µM (inactive)
[33]
  GI50: > 100 µM (inactive)
[34]
  GI50: 32.1 µM (inactive)
[35]
  GI50: 40.2 µM (inactive)
[36]
  GI50: 53.5 µM (inactive)
[37]
  GI50: 34.3 µM (inactive)
[38]
  GI50: > 100 µM (inactive)
[39]
  GI50: > 100 µM (inactive)
[40]
  GI50: > 100 µM (inactive)
[41]
  GI50: > 100 µM (inactive)
[42]
  GI50: 77.8 µM (inactive)
[43]
  GI50: 30.7 µM (inactive)
[44]
  GI50: 28.2 µM (inactive)
[45]
  GI50: 63.7 µM (inactive)
[46]
  GI50: 40.4 µM (inactive)
[47]
  GI50: > 100 µM (inactive)
[48]
  GI50: 18.7 µM (inactive)
[49]
  GI50: 8.91 µM (inactive)
[50]
  GI50: > 100 µM (inactive)
[51]
  GI50: 38.5 µM (inactive)
[52]
  GI50: 45.7 µM (inactive)
[53]
  GI50: 40.6 µM (inactive)
[54]
  GI50: 26.4 µM (inactive)
[55]
  GI50: 22 µM (inactive)

— ChEMBL document CHEMBL1201862, “PubChem BioAssay data set” (2004)
